Laboratory results as given in patent US20240067693A1, “POLYPEPTIDES AND USES THEREOF” (MEDIMMUNE LIMITED, priority 2020, published 2024).
Numbered stars: 1 amine (or outer) side, 2 acyl side, 3 side chain; on linkers, the order of the positions; unused ones are H or OH. Bridge positions count the residues as written; N and C are the ends. Square brackets hold non-standard residues; d marks the D form. Side chains are listed from the residue outwards. Peptide text beside a SMILES is read from it. * marks the point of attachment. C18 diacid = O=C(O)CCCCCCCCCCCCCCCCC(=O)*; γGlu = O=C(O)[C@H](CCC(=O)[*:2])N[*:1]; αMeF = C[C@](N)(Cc1ccccc1)C(=O)O

Columns and labels:
[1] = Pharmacokinetic determination via IV and SC administration in Sprague Dawley rats; details: male, rat, plasma, 20 nmol/kg
Method: PK studies were performed to determine the half-life (T1/2) of test peptides. T1/2 describes the time taken for the maximum plasma concentration (Cmax) of a test substance to halve its steady-state concentration when in circulation.
Male SD rats were purchased from Si Bei Fu Laboratory Animal Technology Co. Ltd (China). The animals were 6-8 weeks old with body weights of 200-300 g on the dosing date. The animals were housed in a 12-hour light/12-hour dark cycle environment and were fasted overnight before dosing. The body weight of the animals were recorded before dosing, 24 h and 48 h post dosing . Animals had free access to food and drinks, and the food consumption was quantified every day.
Test articles were administered at 20 nmol/kg. Blood samples were collected from each animal via Jugular vein.
The blood samples were transferred into eppendorf low binding tube containing K2 EDTA. Above 0.150 mL blood were collected at each time point. Blood samples were centrifuged at 4,000 g for 5 minutes at 4° C. to obtain plasma. The plasma samples were stored frozen at −75±15° C. until analysis.
Concentrations of the test articles in the plasma samples were analyzed using a LC-MS/MS method. Data acquisition was performed by LabSolution version 5.89 software (Shimadzu, Kyoto, Japan). Data statistics were performed using Excel 97-2003 software. The pharmacokinetic parameters of test articles were calculated using a non-compartmental approach with Phoenix™ VVinNonlin® 6.1.
The following pharmacokinetic parameters were calculated, whenever possible from the plasma concentration versus time data: • IV administration: T1/2, C0, AUClast, AUCinf, MRTinf, Cl, Vss, Number of Points for Regression. • SC administration: Tmax, Cmax, AUClast, AUCinf, MRTinf, F, Number of Points for Regression.

[2] = target: T1, human amylin receptor (calcitonin receptor co-expressed with receptor activity modifying protein, RAMP3) (hAMYR3) (Homo sapiens, UniProt O60896+P30988); assay: cAMP production in 1321N1 cells with stable recombinant expression of human amylin receptor (hAMYR3); type: cell-based; details: for Ratio (selectivity hAMYR vs hCTR, ratio of EC50 values at the two receptors): EC50 hCTR / EC50 hAMYR3; for EC50: cAMP, 1321N1 cells, assay buffer with 0.1% BSA, read-out: EC50 (pM) hAMYR3
T1 construct: expressed in transfected cells
T1 sequence (P30988 25-474): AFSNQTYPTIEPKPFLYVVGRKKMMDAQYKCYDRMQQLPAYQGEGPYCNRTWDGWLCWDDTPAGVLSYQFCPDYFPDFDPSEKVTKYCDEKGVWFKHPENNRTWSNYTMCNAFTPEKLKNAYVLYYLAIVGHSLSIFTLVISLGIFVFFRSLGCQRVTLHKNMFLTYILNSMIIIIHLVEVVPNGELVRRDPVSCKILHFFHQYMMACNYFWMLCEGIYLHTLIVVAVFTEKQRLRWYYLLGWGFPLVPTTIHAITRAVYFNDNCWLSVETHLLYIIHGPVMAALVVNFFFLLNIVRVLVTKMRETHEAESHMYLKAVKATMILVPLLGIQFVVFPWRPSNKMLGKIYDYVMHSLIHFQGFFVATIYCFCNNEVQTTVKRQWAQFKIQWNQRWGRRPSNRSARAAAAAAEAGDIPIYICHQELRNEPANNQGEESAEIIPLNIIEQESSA
T1 sequence (O60896 24-148 partner): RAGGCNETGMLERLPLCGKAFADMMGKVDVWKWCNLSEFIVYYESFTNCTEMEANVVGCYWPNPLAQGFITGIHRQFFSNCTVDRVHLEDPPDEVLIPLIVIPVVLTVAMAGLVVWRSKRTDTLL
Procedure, shortened: (§1)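 Thawed cells in HBSS/0.1% BSA/25 mM HEPES pH 7.4 with 0.5 mM IBMX were incubated with peptides 30 min at room temperature; cAMP read by HTRF. EC50 from 4-parameter fit of % activation relative to maximal amylin or calcitonin effect.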

[3] = target: T2, human calcitonin receptor (hCTR) (Homo sapiens, UniProt P30988); assay: cAMP production in 1321N1 cells with stable recombinant expression of human calcitonin receptor (hCTR); type: cell-based; details: cAMP, 1321N1 cells, assay buffer with 0.1% BSA; read-out: EC50 (pM) hCTR
T2 construct: expressed in transfected cells
T2 sequence (P30988 25-474): T1 sequence (P30988 25-474)
Procedure, shortened: as §1

| SMILES | half-life ([1]; iv) | half-life ([1]; sc) | Ratio (selectivity hAMYR vs hCTR, ratio of EC50 values at the two receptors) [2] | EC50 [2] | EC50 [3] |
| --- | --- | --- | --- | --- | --- |
| CC[C@H](C)[C@H](NC(=O)[C@@H]1CCCN1C(=O)CNC(=O)[C@](C)(Cc1ccccc1)NC(=O)[C@H](CC(N)=O)NC(=O)[C@H](CC(N)=O)NC(=O)[C@H](CO)NC(=O)[C@H](CO)NC(=O)[C@H](Cc1c[nH]cn1)NC(=O)[C@H](CCCNC(=N)N)NC(=O)[C@H](CC(C)C)NC(=O)[C@H](Cc1ccccc1)NC(=O)[C@H](CCC(=O)O)NC(=O)[C@H](C)NC(=O)[C@H](CC(C)C)NC(=O)[C@H](CCCNC(=N)N)NC(=O)[C@H](CCC(N)=O)NC(=O)[C@@H](NC(=O)[C@H](C)NC(=O)[C@@H]1CSSC[C@H](NC(=O)CC[C@H](NC(=O)CCCCCCCCCCCCCCCCC(=O)O)C(=O)O)C(=O)N[C@@H](CC(N)=O)C(=O)N[C@@H]([C@@H](C)O)C(=O)N[C@@H](C)C(=O)N[C@@H]([C@@H](C)O)C(=O)N1)[C@@H](C)O)C(=O)N[C@@H](CC(C)C)C(=O)N1CCC[C@H]1C(=O)N1CCC[C@H]1C(=O)N[C@H](C(=O)N[C@@H](CC(N)=O)C(=O)N[C@H](C(=O)NCC(=O)N[C@@H](CO)C(=O)N[C@@H](CC(N)=O)C(=O)N[C@H](C(=O)N[C@@H](Cc1ccc(O)cc1)C(N)=O)[C@@H](C)O)C(C)C)[C@@H](C)O [Peptide 10, C18diacid-γE-[CNTATC]ATQRLAEFLRHSSNN(αMePhe)GPILPPTNVGSNTY-amide] ({C18 diacid-γGlu}-CNTATCATQRLAEFLRHSSNN[αMeF]GPILPPTNVGSNTY-NH2; disulfide 1-6) | 606 min | 528 min | 15 | 183 pM | 2730 pM |
| CC[C@H](C)[C@H](NC(=O)[C@@H]1CCCN1C(=O)CNC(=O)[C@](C)(Cc1ccccc1)NC(=O)[C@H](CC(N)=O)NC(=O)[C@H](CC(N)=O)NC(=O)[C@H](CO)NC(=O)[C@H](CO)NC(=O)[C@H](Cc1c[nH]cn1)NC(=O)[C@H](CCCNC(=N)N)NC(=O)[C@H](CC(C)C)NC(=O)[C@H](Cc1ccccc1)NC(=O)[C@H](CCC(=O)O)NC(=O)[C@H](C)NC(=O)[C@H](CC(C)C)NC(=O)[C@H](CCCNC(=N)N)NC(=O)[C@H](CCC(N)=O)NC(=O)[C@@H](NC(=O)[C@H](C)NC(=O)[C@@H]1CSSC[C@H](NC(=O)[C@H](CCCCN)NC(=O)[C@@H](N)CCCCNC(=O)CC[C@H](NC(=O)CCCCCCCCCCCCCCCCC(=O)O)C(=O)O)C(=O)N[C@@H](CC(N)=O)C(=O)N[C@@H]([C@@H](C)O)C(=O)N[C@@H](C)C(=O)N[C@@H]([C@@H](C)O)C(=O)N1)[C@@H](C)O)C(=O)N[C@@H](CC(C)C)C(=O)N1CCC[C@H]1C(=O)N1CCC[C@H]1C(=O)N[C@H](C(=O)N[C@@H](CC(N)=O)C(=O)N[C@H](C(=O)NCC(=O)N[C@@H](CO)C(=O)N[C@@H](CC(N)=O)C(=O)N[C@H](C(=O)N[C@@H](Cc1ccc(O)cc1)C(N)=O)[C@@H](C)O)C(C)C)[C@@H](C)O [Peptide 12, K(γE-C18diacid)K[CNTATC]ATQRLAEFLRHSSNN(αMePhe)GPILPPTNVGSNTY-amide] (H-K([γGlu-C18 diacid])KCNTATCATQRLAEFLRHSSNN[αMeF]GPILPPTNVGSNTY-NH2; disulfide 3-8; N-terminus assumed) | 552 min | 582 min | 8 | 158 pM | 1220 pM |
| CC[C@H](C)[C@H](NC(=O)[C@@H]1CCCN1C(=O)CNC(=O)[C@](C)(Cc1ccccc1)NC(=O)[C@H](CC(N)=O)NC(=O)[C@H](CC(N)=O)NC(=O)[C@H](CO)NC(=O)[C@H](CO)NC(=O)[C@H](Cc1c[nH]cn1)NC(=O)[C@H](CCCNC(=N)N)NC(=O)[C@H](CC(C)C)NC(=O)[C@H](Cc1ccccc1)NC(=O)[C@H](CC(N)=O)NC(=O)[C@H](C)NC(=O)[C@H](CC(C)C)NC(=O)[C@H](CCCNC(=N)N)NC(=O)[C@H](CCC(N)=O)NC(=O)[C@@H](NC(=O)[C@H](C)NC(=O)[C@@H]1CSSC[C@H](NC(=O)[C@H](CCCCN)NC(=O)[C@@H](N)CCCCNC(=O)CC[C@H](NC(=O)CCCCCCCCCCCCCCCCC(=O)O)C(=O)O)C(=O)N[C@@H](CC(N)=O)C(=O)N[C@@H]([C@@H](C)O)C(=O)N[C@@H](C)C(=O)N[C@@H]([C@@H](C)O)C(=O)N1)[C@@H](C)O)C(=O)N[C@@H](CC(C)C)C(=O)N1CCC[C@H]1C(=O)N1CCC[C@H]1C(=O)N[C@H](C(=O)N[C@@H](CCC(=O)O)C(=O)N[C@H](C(=O)NCC(=O)N[C@@H](CO)C(=O)N[C@@H](CC(N)=O)C(=O)N[C@H](C(=O)N[C@@H](Cc1ccc(O)cc1)C(N)=O)[C@@H](C)O)C(C)C)[C@@H](C)O [Peptide 15, K(γE-C18diacid)K[CNTATC]ATQRLANFLRHSSNN(αMePhe)GPILPPTEVGSNTY-amide] (H-K([γGlu-C18 diacid])KCNTATCATQRLANFLRHSSNN[αMeF]GPILPPTEVGSNTY-NH2; disulfide 3-8; N-terminus assumed) | 624 min | 690 min | 10 | 522 pM | 5460 pM |
| CC[C@H](C)[C@H](NC(=O)[C@@H]1CCCN1C(=O)CNC(=O)[C@](C)(Cc1ccccc1)NC(=O)[C@H](CC(N)=O)NC(=O)[C@H](CC(N)=O)NC(=O)[C@H](CO)NC(=O)[C@H](CO)NC(=O)[C@H](Cc1c[nH]cn1)NC(=O)[C@H](CCCNC(=N)N)NC(=O)[C@H](CC(C)C)NC(=O)[C@H](Cc1ccccc1)NC(=O)[C@H](CC(N)=O)NC(=O)[C@H](C)NC(=O)[C@H](CC(C)C)NC(=O)[C@H](CCCNC(=N)N)NC(=O)[C@H](CCC(N)=O)NC(=O)[C@@H](NC(=O)[C@H](C)NC(=O)[C@@H]1CSSC[C@H](NC(=O)[C@@H](N)CCCCNC(=O)CC[C@H](NC(=O)CC[C@H](NC(=O)CCCCCCCCCCCCCCCCC(=O)O)C(=O)O)C(=O)O)C(=O)N[C@@H](CC(N)=O)C(=O)N[C@@H]([C@@H](C)O)C(=O)N[C@@H](C)C(=O)N[C@@H]([C@@H](C)O)C(=O)N1)[C@@H](C)O)C(=O)N[C@@H](CC(C)C)C(=O)N1CCC[C@H]1C(=O)N1CCC[C@H]1C(=O)N[C@H](C(=O)N[C@@H](CCC(=O)O)C(=O)N[C@H](C(=O)NCC(=O)N[C@@H](CO)C(=O)N[C@@H](CC(N)=O)C(=O)N[C@H](C(=O)N[C@@H](Cc1ccc(O)cc1)C(N)=O)[C@@H](C)O)C(C)C)[C@@H](C)O [Peptide 18, K(γE-γE-C18diacid)[CNTATC]ATQRLANFLRHSSNN(αMePhe)GPILPPTEVGSNTY-amide] (H-K([γGlu-γGlu-C18 diacid])CNTATCATQRLANFLRHSSNN[αMeF]GPILPPTEVGSNTY-NH2; disulfide 2-7; N-terminus assumed) | 720 min | 816 min | 15 | 319 pM | 4690 pM |
| CC[C@H](C)[C@H](NC(=O)[C@@H]1CCCN1C(=O)CNC(=O)[C@](C)(Cc1ccccc1)NC(=O)[C@H](CC(N)=O)NC(=O)[C@H](CC(N)=O)NC(=O)[C@H](CO)NC(=O)[C@H](CO)NC(=O)[C@H](Cc1c[nH]cn1)NC(=O)[C@H](CCCNC(=N)N)NC(=O)[C@H](CC(C)C)NC(=O)[C@H](Cc1ccccc1)NC(=O)[C@H](CC(N)=O)NC(=O)[C@H](C)NC(=O)[C@H](CC(C)C)NC(=O)[C@H](CCCNC(=N)N)NC(=O)[C@H](CCC(N)=O)NC(=O)[C@@H](NC(=O)[C@H](C)NC(=O)[C@@H]1CSSC[C@H](NC(=O)[C@@H](N)CCCCNC(=O)CC[C@H](NC(=O)CC[C@H](NC(=O)CCCCCCCCCCCCCCCCC(=O)O)C(=O)O)C(=O)O)C(=O)N[C@@H](CC(N)=O)C(=O)N[C@@H]([C@@H](C)O)C(=O)N[C@@H](C)C(=O)N[C@@H]([C@@H](C)O)C(=O)N1)[C@@H](C)O)C(=O)N[C@@H](CC(C)C)C(=O)N1CCC[C@H]1C(=O)N1CCC[C@H]1C(=O)N[C@H](C(=O)N[C@@H](CC(N)=O)C(=O)N[C@H](C(=O)NCC(=O)N[C@@H](CO)C(=O)N[C@@H](CC(N)=O)C(=O)N[C@H](C(=O)N[C@@H](Cc1ccc(O)cc1)C(N)=O)[C@@H](C)O)C(C)C)[C@@H](C)O [Peptide 20, K(γE-γE-C18diacid)[CNTATC]ATQRLANFLRHSSNN(αMePhe)GPILPPTNVGSNTY-amide] (H-K([γGlu-γGlu-C18 diacid])CNTATCATQRLANFLRHSSNN[αMeF]GPILPPTNVGSNTY-NH2; disulfide 2-7; N-terminus assumed) | 600 min | 648 min | 26 | 174 pM | 4590 pM |
